Data set [1] has as its system conditioned avoidance response (CAR). As to the kind of experiment: conditioned avoidance response (CAR) in rats, shuttle box technique, oral. In kind it is in vivo. The conditions noted are these: Rattus norvegicus, read-out: ORAL CAR-ED50. As for the experimental part: The apparatus employed is a box having a six-inch barrier separating two equal compartments. The floor of the left side of the box contains an electrified grid by means of which an intermittent shock is administered. The other side is not electrified. Rats are trained by placing them individually in the electrified compartment of the box and administering a foot shock which causes the rat to jump the barrier to the non-electrified side. […] The test drug is then administered in various doses to different groups of rats and the effect of the treatment in terms of the number of rats which fail to jump the barrier before receiving a foot shock is measured. That dose of test drug which will reduce the number of conditioned animals jumping the barrier before receiving a foot shock by one-half is referred to as the CAR-ED50.

A further data set relates to pernicious preening. As to the kind of experiment: Prevention of pernicious preening in mice (anti-psychotic or analgetic). Conditions: Mus musculus, po. In kind it is in vivo.
For another data set, the system named is reserpine ptosis. As to the kind of experiment: Prevention of reserpine ptosis in mice (anti-depressant). It counts as in vivo.
A further data set concerns phenylquinone writhing. As to the kind of experiment: Reduction of phenylquinone writhing in mice (analgesic). Conditions: Mus musculus, po. In kind it is in vivo. A general note: An intraperitoneal irritant provokes the stretching counted in writhing tests.
The conditions of data set [2]: U.S. Pat. No. 3,381,009; cited from earlier work.
The conditions of data set [3]: compared with imipramine; cited from earlier work.
A further data set concerns schizophrenic patients. Conditions: et al. (1973), cited from earlier work.
The mark [4] stands for this setting: rats, oral, dose reducing by one-half the number of conditioned animals jumping the barrier before foot shock.

These results are taken from patent US4465683A, “Anti-psychotic agents” (priority 1979, dated 1984).

As a reminder, the ED50 is the dose that gives a 50% effect, or the effect in half of the subjects.

Structures are written as SMILES. Structures can show the parent of a compound that is named as a salt. Where two headings read alike, the source gives them in different places.

`O=c1n(CCCCN2CCN(c3cccc(Cl)c3)CC2)nc2ccccn12` [Formula I, R^1 = H, R^2 = 3-Cl, 2-[4-[4-(3-Chlorophenyl)piperazin-1-yl]butyl]-1,2,4-triazolo[4,3-a]pyridin-3-(2H)-one]: the ED50 in data set [1] (setting [4]) was determined as 9 mg/kg; in the data set with pernicious preening, 8 mg/kg; in the data set with phenylquinone writhing, 23 mg/kg. In addition, the “activity in prevention of reserpine ptosis” value in the data set on reserpine ptosis (at 15.7 mg/kg (p.o.)) was “inactive”.

For `CN(C)CCCN1c2ccccc2Sc2ccc(Cl)cc21` [Chlorpromazine], the ED50 in data set [1] (po) came to 38.7 mg/kg.

Consider `COc1ccccc1N1CCN(CCCCn2nc3ccccn3c2=O)CC1` [Formula I, R^1 = H, R^2 = 2-CH3 O, 2-[4-[4(2-Methoxphenyl)-1-piperazinyl]-butyl]-1,2,4-triazolo[4,3-a]pyridin-3-(2H)-one Hydrochloride], for which the ED50 in data set [1] (setting [4]) came out at 18.4 mg/kg.

Regarding `O=c1n(CCCN2CCN(c3cccc(Cl)c3)CC2)nc2ccccn12` [Trazodone, 2-[3-[4-(3-chlorophenyl)-1-piperazinyl]-propyl]-1,2,4-triazolo[4,3-a]pyridin-3(2H)-one], the ED50 was found to be 45.4 mg/kg in data set [1] (setting [4]); 43 mg/kg with pernicious preening; 36 mg/kg in the data set on reserpine ptosis (Mus musculus, po). For the same compound, the “pharmacological actions in animal tests” value in data set [2] is “tranquilizing action, hypotensive action, and analgesic action”. In data set [3], the clinical antidepressant effectiveness result is listed as “equivalent in effectiveness to imipramine”. The “side effects in clinical use” value in data set [3] is listed as “fewer side effects”. Moreover, the “effect on depressive symptoms exhibited by schizophrenics” value with schizophrenic patients (Ban) is reported as “improvement in depressive symptoms”. Moreover, the “anti-psychotic action in schizophrenic patients” value with schizophrenic patients (Galvan) was “minimal”.

Turning to `Cl.O=c1n(CCCCN2CCN(c3cccc(C(F)(F)F)c3)CC2)nc2ccccn12` [Formula I, R^1 = H, R^2 = 3-CF3, 2-[4-[4-[3-(Trifluoromethyl)phenyl]-1-piperazinyl]butyl]-1,2,4-triazolo[4,3-a]pyridin-3(2H)-one Hydrochloride], the ED50 in data set [1] (setting [4]) is 11.4 mg/kg.
